This passage reports IC50 results from ChEMBL document CHEMBL5360605, “Novel Lactams as CBL-B Inhibitors for Treating Cancer” (ACS Med Chem Lett, 2023).

pIC50: −log10 of the molar value.

For orientation: pIC50 means the negative decadic logarithm of the IC50, by convention in mol/L.

The target of this experiment is E3 ubiquitin-protein ligase CBL-B (Homo sapiens, UniProt Q13191). Nature of the experiment: Inhibition of biotin-tagged Cbl-b (unknown origin) assessed as reduction in LCK ubiquitination using His-LCK as substrate preincubated for 60 mins followed by substrate addition in presence of ATP, MgCl2 and measured after 90 mins by HTRF assay. (In general: Time-resolved FRET reads energy transfer from a long-lived donor to a nearby acceptor.)
E3 ubiquitin-protein ligase CBL-B, sequence (Q13191 whole entry): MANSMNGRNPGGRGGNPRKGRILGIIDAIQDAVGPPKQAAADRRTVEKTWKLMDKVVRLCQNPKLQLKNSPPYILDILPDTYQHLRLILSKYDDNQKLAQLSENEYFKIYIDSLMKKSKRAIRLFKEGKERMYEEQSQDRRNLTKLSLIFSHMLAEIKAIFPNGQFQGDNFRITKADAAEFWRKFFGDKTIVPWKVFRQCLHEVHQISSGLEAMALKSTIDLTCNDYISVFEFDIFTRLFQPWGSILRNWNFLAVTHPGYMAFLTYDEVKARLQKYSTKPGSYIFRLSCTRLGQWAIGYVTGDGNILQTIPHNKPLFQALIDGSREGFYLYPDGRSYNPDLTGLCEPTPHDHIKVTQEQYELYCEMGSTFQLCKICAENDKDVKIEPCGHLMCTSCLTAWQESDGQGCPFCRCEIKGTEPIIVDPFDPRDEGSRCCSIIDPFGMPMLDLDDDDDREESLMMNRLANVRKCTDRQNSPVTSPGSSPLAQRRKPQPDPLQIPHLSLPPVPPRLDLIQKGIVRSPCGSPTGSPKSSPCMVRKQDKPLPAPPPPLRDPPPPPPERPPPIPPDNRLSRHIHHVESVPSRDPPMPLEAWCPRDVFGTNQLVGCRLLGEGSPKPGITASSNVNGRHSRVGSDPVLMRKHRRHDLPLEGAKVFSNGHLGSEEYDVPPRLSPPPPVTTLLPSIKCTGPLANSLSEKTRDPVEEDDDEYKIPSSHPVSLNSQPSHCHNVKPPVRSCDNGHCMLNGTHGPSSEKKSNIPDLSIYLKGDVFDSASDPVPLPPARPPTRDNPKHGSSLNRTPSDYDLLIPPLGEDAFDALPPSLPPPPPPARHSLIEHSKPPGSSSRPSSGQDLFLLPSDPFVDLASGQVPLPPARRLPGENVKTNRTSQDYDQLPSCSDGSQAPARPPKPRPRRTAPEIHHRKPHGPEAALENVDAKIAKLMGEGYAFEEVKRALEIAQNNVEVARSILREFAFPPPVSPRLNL
Turning to `C[C@H](NC1(C)CCC1)c1cc2c(c(C(F)(F)F)c1)CN(c1cccc([C@@H](c3nncn3C)C3COC3)c1)C2=O`, the pIC50 is 8.40.

Regarding `CCOc1cc([C@]2(c3nncn3C)C[C@@H](C)C2)cc(N2Cc3c(cc(CNC4(C)CCC4)cc3C(F)(F)F)C2=O)n1`, the pIC50 was 8.40.

As for `Cn1cnnc1[C@]1(c2cccc(N3Cc4c(cc(CNC5(C)CCC5)cc4C(F)(F)F)C3=O)c2)C[C@H](Cl)C1`, the pIC50 was 8.40.

As for `CO[C@H]1C[C@](c2cccc(N3Cc4c(cc(CNC5CC6CC6C5)cc4C(F)(F)F)C3=O)c2)(c2nncn2C)C1` (stereo partly specified), the pIC50 is 8.40.

`C[C@H](NC1(C)CCC1)c1cc(Cl)c2c(c1)C(=O)N(c1cccc([C@]3(c4nncn4C)C[C@H](F)C3)c1)C2`: the pIC50 is 8.40.

Turning to `Cn1cnnc1C(c1cccc(N2Cc3c(cc(CNC4(C)CCC4)cc3C(F)(F)F)C2=O)c1)[C@H]1C[C@H](CC#N)C1` (stereo partly specified), the pIC50 was 8.52.
